Data set [1] in a line: Righting reflex experiment on mice. Particulars: both, ICR, mouse, in vivo; for MTD: intravenous; for LD50: iv. Here is the method: (§1) LD5 (5% lethal dose): dose required to cause 5% of mice to die in a test.
(§2) If a normal animal was able to immediately turn its body to normal upright position after being pushed over or made lying on its back, such a reflex was determined as the righting reflex. Otherwise, loss of the righting reflex and the time of loss were recorded, and a reflex recovery time was recorded when the animal restored the righting reflex. The period from finishing of drug administration until loss of the righting reflex was recorded as the anesthesia induction time, and the period from loss of the righting reflex until recovery of the righting reflex was recorded as the anesthesia maintenance time.
(§3) TI (therapeutic index, i.e. LD50/ED50), SI (safety index, i.e. LD5/ED95).
(§4) MTD (maximum tolerated dose): the maximum dose able to cause 100% to loss the righting index without death.
(§5) Indicators such as median effective dose (ED50), median lethal dose (LD50), therapeutic index (TI, i.e. LD50/ED50), safety index (SI, i.e. LD5/ED95), anesthesia induction time, anesthesia maintenance time, and maximum tolerated dose (MTD) were used to evaluate the effect and safety of anesthesia. […] After adapting to the laboratory environment, laboratory animals were fasted for 12 hours. On the next day, administration was carried out at 10 mg/kg body weight. Upon intravenous injection, the time of loss of the righting reflex was recorded. The period from finishing of drug administration until loss of the righting reflex was recorded as the anesthesia induction time, and the period from loss of the righting reflex until recovery of the righting reflex was recorded as the anesthesia maintenance time. The anesthesia induction time and the anesthesia maintenance time were used to indicate how strong an anesthetic effect was. Meanwhile, the dose required to cause a 7-min anesthesia (HD7) was measured and used to evaluate relative efficacy.

Another data set deals with ICR mice. The data set is described as follows: Righting reflex experiment on mice. The conditions noted are these: for ED50: Mus musculus, iv; for Anesthesia induction time / Anesthesia maintenance time / HD7 / MTD: mice; for Anesthesia induction time / Anesthesia maintenance time: intravenous injection; for Anesthesia induction time: end of administration until loss of righting reflex; for Anesthesia maintenance time: loss until recovery of righting reflex; for SI: safety index, LD5/ED95, mice; for TI: therapeutic index, LD50/ED50, mice; for HD7: dose required to cause a 7-min anesthesia; for MTD: maximum dose causing 100% loss of righting reflex without death. Here is the method: as §1, §2, §3, §4, §5

Usually LD50 stands for the dose at which mortality reaches 50%. A low value points to greater toxicity. The ED50 is the dose at which the effect has come halfway, by size or by number of responders.

Each structure is given as a SMILES string.

For the compound `CC(c1cccc(C2CC2)c1O)C1CC1` (stereo not shown) [Compound 5, 2-cyclopropyl-6-(1-cyclopropylethyl)phenol], in data set [1], the MTD came to 60 mg/kg and the LD50 was determined as 80 mg/kg. In the data set with ICR mice, this compound showed a 50% effective dose (ED50) of 14.5 mg/kg, an Anesthesia induction time of under 15.0 s, an Anesthesia maintenance time of 1669.5 s and an SI of 4.0. In addition, the TI with ICR mice is reported as 5.5.
In the case of `CC(c1cccc(C2(C)CC2)c1O)C1CC1` (stereo not shown) [Compound 6, 2-(1-cyclopropylethyl)-6-(1-methylcyclopropyl)phenol], in data set [1], the MTD was found to be 30 mg/kg and the LD50 was 40 mg/kg. For the same compound, in the data set with ICR mice, the 50% effect level (ED50) was put at a dose of 10.5 mg/kg, the Anesthesia induction time is under 15.0 s, the Anesthesia maintenance time is 554.9 s and the SI amounted to 2.7. The compound also returned a TI in the data set with ICR mice of 3.8.
`CCC(C)c1cccc(C(C)C2CC2)c1O` (stereo not shown) [Compound 4, 2-sec-butyl-6-(1-cyclopropylethyl)phenol]: in data set [1], the MTD amounted to 25 mg/kg and the 50% lethal dose (LD50) was determined as 38.1 mg/kg. In the data set with ICR mice, this compound yielded an ED50 of 4.5 mg/kg, an Anesthesia induction time of under 15.0 s, an Anesthesia maintenance time of 901.7 s and an HD7 of 4.0 mg/kg. For the same compound, in the data set on ICR mice, the SI stood at 2.6 and the TI was 8.4.
In data set [1], `CC(C)c1cccc([C@H](C)C2CCC2)c1O` [Compound 14, 2-[(1R)-1-cyclobutylethyl]-6-isopropyl-phenol] yielded an LD50 of 38.2 mg/kg. In the data set on ICR mice, the 50% effective dose (ED50) was 6.6 mg/kg, the Anesthesia induction time is reported as under 15.0 s, the Anesthesia maintenance time was 2235.6 s and the MTD amounted to 35.0 mg/kg. In the data set on ICR mice, this compound returned an SI of 3.7 and a TI of 5.8.
The compound `CC(C)c1cccc([C@@H](C)C2CCC2)c1O` [Compound 15, 2-[(1S)-1-cyclobutylethyl]-6-isopropyl-phenol] registered an LD50 in data set [1] of 107 mg/kg. Besides, in the data set with ICR mice, the median effective dose (ED50) was found to be 46.1 mg/kg, the Anesthesia induction time is listed as under 15.0 s, the Anesthesia maintenance time was 485.8 s and the MTD came to 70.0 mg/kg. Besides, in the data set on ICR mice, the SI worked out at 1.1 and the TI was 2.3.
In the case of `CC(C)c1cccc(C(C2CC2)C2CC2)c1O` [Compound 11, 2-(dicyclopropylmethyl)-6-isopropyl-phenol], in data set [1], the MTD amounted to 80 mg/kg and the LD50 turned out to be 100 mg/kg. In the data set with ICR mice, this compound yielded an ED50 of 30.1 mg/kg, an Anesthesia induction time of under 15.0 s, an Anesthesia maintenance time of 1494.7 s and an SI of 2.5. Besides, in the data set with ICR mice, the TI is reported as 3.3.
Turning to `C[C@H](c1cccc([C@H](C)C2CC2)c1O)C1CC1` [Compound 19, 2-[(1S)-1-cyclopropylethyl]-6-[(1R)-1-cyclopropylethyl]phenol], in data set [1], the MTD came to 5 mg/kg and the LD50 was 6.3 mg/kg. In the data set with ICR mice, the median effective dose (ED50) amounted to 1.5 mg/kg, the Anesthesia induction time was under 15.0 s, the Anesthesia maintenance time was determined as 754.4 s and the SI is 3.8. This compound had a TI in the data set on ICR mice of 4.1.
In data set [1], `CC(C)c1cccc(C(C)C2CC2)c1O` (stereo not shown) [Compound 3, 2-(1-cyclopropylethyl)-6-isopropylphenol] gave an MTD of 10 mg/kg and an LD50 of 22.7 mg/kg. In the data set on ICR mice, the 50% effect level (ED50) was put at a dose of 3.7 mg/kg, the Anesthesia induction time is under 15.0 s, the Anesthesia maintenance time was determined as 660.4 s and the HD7 is on record as 6.0 mg/kg. In the data set with ICR mice, this compound had an SI of 1.7 and a TI of 6.1.

The record behind these values is US9517988B2 (Sichuan Haisco Pharmaceutical Co., Ltd., priority 2013, dated 2016).
